Reference: patent US20220411362A1, “DITERPENOID COMPOUNDS THAT ACT ON PROTEIN KINASE C (PKC)” (K-Gen, Inc., priority 2019, published 2022)
pKi: −log10 of the molar value. Where two headings read alike, the source gives them in different places.

Columns and labels:
C1b domain of human PKCδ = target: T1, C1b domain of human PKCδ (Homo sapiens, UniProt Q05655); test: Competitive 3H-PDBu binding to C1b domain of PKCδ; conditions: 3H-PDBu competition
T1 construct: Genes encoding C1b domains of human PKCα, δ, ε, θ, and PKD1 (PKCμ) were synthesized; made in house; host or cells: E. coli BL21(DE3)
Protocol: (§1) Compounds described in this disclosure were tested for binding affinity to C1b domain of PKC isoforms. Compound binding affinity to C1b domain of PKC isoforms was derived from competitive binding assay using radioactive tracer ^3H-PDBu and recombinant GST-C1b or full-length of human PKC proteins based on modified procedures from Methods in Molecular Biology, vol.
(§2) Genes encoding C1b domains of human PKCα, δ, ε, θ, and PKD1 (PKCμ) were synthesized and inserted into pGEX-2TK or pGEX-4T1 vectors for expression and production of GST-C1b proteins in E. coli BL21(DE3) via IPTG induction. The target proteins were purified by glutathione sepharose 4B and followed by ion exchange chromatography if needed to achieve purity >70%. Aliquots of the purified proteins were stored at −80 degree for binding assay (storage buffer: 20 mM Tris pH 8.0, 200 mM NaCl, 10% glycerol, 1 mM DTT).
(§3) The plate was incubated at 37° C. on a shaker at 300 rpm for 10 minutes and then put on ice for 20 minutes. […] The bottom of the filter plate was sealed and 50 μL of MicroScint-20 (PerkinElmer) cocktail was added to each well. ^3H-PDBu trapped in each well was counted using PerkinElmer MicroBeta2 Reader. Data were analyzed using GraphPad Prism5 with the model “log(inhibitor) vs. response-variable slope” to fit the IC50, and then IC50 was transformed to Ki using Cheng-Prusoff equation: Ki=IC50/(1+added radio ligand/Kd). Kd is the binding affinity of each protein preparation to ^3H-PDBu, determined experimentally.

C1b domain of human PKCα = target: T2, C1b domain of human PKCα (Homo sapiens, UniProt P17252); test: biochemical; type: binding; conditions: 3H-PDBu competition
T2 construct: Genes encoding C1b domains of human PKCα, δ, ε, θ, and PKD1 (PKCμ) were synthesized; made in house; host or cells: E. coli BL21(DE3)
Protocol: as §1, §2
The plate was incubated at 37° C. on a shaker at 300 rpm for 10 minutes and then put on ice for 20 minutes. […] The bottom of the filter plate was sealed and 50 μL of MicroScint-20 (PerkinElmer) cocktail was added to each well. ^3H-PDBu trapped in each well was counted using PerkinElmer MicroBeta2 Reader. […] Kd is the binding affinity of each protein preparation to ^3H-PDBu, determined experimentally.

[1] = target: T3, C1b domain of human PKD1 (PKCμ) (Homo sapiens, UniProt Q15139); test: biochemical; type: binding
T3 construct: Genes encoding C1b domains of human PKCα, δ, ε, θ, and PKD1 (PKCμ) were synthesized; made in house; host or cells: E. coli BL21(DE3)
T3 sequence (Q15139 270-320 limits assumed): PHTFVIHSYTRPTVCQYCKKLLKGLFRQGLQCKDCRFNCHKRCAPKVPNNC
Protocol: as §1, §2, §3

[2] = system: A549 non-small cell lung cancer cell line; test: Proliferation of A549 (CellTiter Glo); type: cell-based; conditions: read-out: IC50 μM (A549 Cell Line)
Protocol: The diterpenoid compounds were tested in A549, a non-small cell lung cancer cell line harboring a K-Ras activating mutation. Briefly, A549 cells at a density of 1,000 cells/well were seeded in 96-well plates and incubated at 37° C. for 24 hours. A series of different concentrations of compound stocks (500×) were prepared by 3-fold serial dilution in DMSO. These compounds were further diluted in culture media and then added to cells so that the final DMSO concentration was not exceeding 0.25%. After 96 hours of incubation, 50 μL of CellTiter Glo reagent (Promega) was added to each well and luminescence was measured after 10 minutes using EnVision (PerkinElmer). Luminescence from cells treated with DMSO alone was set as Max and % of inhibition was calculated as follows: Inhibition %=(Max−Sample value)/Max×100. Data was analyzed using XL-fit software (ID Business Solutions Ltd.) and IC50, relative IC50, and % of top inhibition was calculated. Some of the compounds in this disclosure were very potent in blocking proliferation of A549 lung cancer cells at low nM range. In addition, potency of inhibiting A549 proliferation correlated well with its binding affinity to PKCs for this series of compounds. In other words, higher affinity binders had stronger inhibitory effects on A549 proliferation. This further support the notion that activation, rather than inhibition, of certain PKC isoforms is required to block proliferation of cancer cells, some of which may harbor K-Ras mutations. This is in sharp contrast to previous literature and common belief that inhibition of PKC is necessary to block cancer cell growth (Kang, 2014, New Journal of Science, 2014:1-36). Data presented here is in agreement with recent findings that many loss-of-function but not gain-of-function mutations of PKC isoforms have been identified in many human cancers (Antal et al., 2015, Cell, 160:489-502).

[3] = Homo sapiens, A549, 96 hours incubation, CellTiter Glo

T1 sequence (Q05655 230-280 limits assumed): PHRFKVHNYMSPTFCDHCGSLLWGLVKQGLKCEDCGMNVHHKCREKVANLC

CC1=C[C@H]2[C@@]3(O)[C@H](C)C[C@]4(OC(=O)C[C@@H](N)c5ccccc5)[C@H]([C@@H]3C=C(CO)C[C@]2(O)C1=O)C4(C)C [Compound K101-C1357]
pKi (C1b domain of human PKCδ; Ki PKCδ): 6.40 to 6.70 | pKi (C1b domain of human PKCα; Ki PKCα): < 5.10 | pKi [1]: 7.22 to 7.52 | IC50 ([2]; Homo sapiens, A549, 96 h): 2 to 5 µM

CC1=C[C@H]2[C@@]3(O)[C@H](C)C[C@]4(OC(=O)[C@@H](O)Cc5ccccc5)[C@H]([C@@H]3C=C(CO)C[C@]2(O)C1=O)C4(C)C [Compound K101-C1354]
pKi (C1b domain of human PKCδ; Ki PKCδ): 7.22 to 7.52 | pKi (C1b domain of human PKCα; Ki PKCα): 5.70 to 6.00 | pKi [1]: 7.52 to 9.00 | IC50 ([2]; Homo sapiens, A549, 96 h): 0.2 to 0.6 µM

CC1=C[C@H]2[C@@]3(O)[C@H](C)C[C@]4(OC(=O)[C@@H](N)CCS(C)(=O)=O)[C@H]([C@@H]3C=C(CO)C[C@]2(O)C1=O)C4(C)C [Compound K101-C1326]
pKi (C1b domain of human PKCδ; Ki PKCδ): 6.10 to 6.40 | pKi (C1b domain of human PKCα; Ki PKCα): < 5.10 | pKi [1]: 6.40 to 6.70 | IC50 ([2]; Homo sapiens, A549, 96 h): > 30 µM

CSCC[C@H](N)C(=O)O[C@@]12C[C@@H](C)[C@@]3(O)[C@@H](C=C(CO)C[C@]4(O)C(=O)C(C)=C[C@@H]34)[C@@H]1C2(C)C [Compound K101-C1338]
pKi (C1b domain of human PKCδ; Ki PKCδ): 6.70 to 7.00 | pKi (C1b domain of human PKCα; Ki PKCα): 5.40 to 5.70 | pKi [1]: 7.22 to 7.52 | IC50 ([2]; Homo sapiens, A549, 96 h): 5 to 10 µM

CC1=C[C@H]2[C@@]3(O)[C@H](C)C[C@]4(OC(=O)[C@H](N)C56CC(F)(C5)C6)[C@H]([C@@H]3C=C(CO)C[C@]2(O)C1=O)C4(C)C [Compound K101-C137301]
IC50 [2, 3]: 10 to 30 µM

CC1=C[C@H]2[C@@]3(O)[C@H](C)C[C@]4(OC(=O)[C@@H](N)C/C=C/c5ccccc5)[C@H]([C@@H]3C=C(CO)C[C@]2(O)C1=O)C4(C)C [Compound K101-C1331]
pKi (C1b domain of human PKCδ; read-out: Ki PKCδ): 8.00 to 8.30 | pKi (C1b domain of human PKCα; read-out: Ki PKCα): 6.70 to 7.00 | pKi ([1]; read-out: Ki PKD1/PKCμ): > 8.30 | IC50 ([2]; A549, 96 hours incubation, CellTiter Glo): 0.06 to 0.1 µM

CC1=C[C@H]2[C@@]3(O)[C@H](C)C[C@]4(OC(=O)[C@H](N)Cc5c[nH]c6ccccc56)[C@H]([C@@H]3C=C(CO)C[C@]2(O)C1=O)C4(C)C [Compound K101-C1341]
pKi (C1b domain of human PKCδ; Ki PKCδ): 7.22 to 7.52 | pKi (C1b domain of human PKCα; Ki PKCα): 5.70 to 6.00 | pKi [1]: 7.52 to 9.00 | IC50 ([2]; Homo sapiens, A549, 96 h): 10 to 30 µM

CC1=C[C@H]2[C@@]3(O)[C@H](C)C[C@]4(OC(=O)CCCCCCCCCCCC(=O)O)[C@H]([C@@H]3C=C(CO)C[C@]2(O)C1=O)C4(C)C [Compound K101-C1335]
pKi (C1b domain of human PKCδ; Ki PKCδ): 6.40 to 6.70 | pKi (C1b domain of human PKCα; Ki PKCα): < 5.10 | IC50 ([2]; Homo sapiens, A549, 96 h): 10 to 30 µM

CC1=C[C@H]2[C@@]3(O)[C@H](C)C[C@]4(OC(=O)[C@@H](N)CC5CC5)[C@H]([C@@H]3C=C(CO)C[C@]2(O)C1=O)C4(C)C [Compound K101-C1330]
pKi (C1b domain of human PKCα; Ki PKCα): 5.70 to 6.00 | pKi [1]: 7.22 to 7.52 | IC50 ([2]; Homo sapiens, A549, 96 h): 2 to 5 µM

CSC[C@H](N)C(=O)O[C@@]12C[C@@H](C)[C@@]3(O)[C@@H](C=C(CO)C[C@]4(O)C(=O)C(C)=C[C@@H]34)[C@@H]1C2(C)C [Compound K101-C1339]
pKi (C1b domain of human PKCδ; Ki PKCδ): 6.40 to 6.70 | pKi (C1b domain of human PKCα; Ki PKCα): 5.22 to 5.40 | IC50 ([2]; Homo sapiens, A549, 96 h): 5 to 10 µM

CC1=C[C@H]2[C@@]3(O)[C@H](C)C[C@]4(OC(=O)[C@@H](N)C5Cc6ccccc6C5)[C@H]([C@@H]3C=C(CCl)C[C@]2(O)C1=O)C4(C)C [K101-C1329-Cl]
IC50 [2, 3]: 0.06 to 0.1 µM

CN[C@@H](CC1CCCCC1)C(=O)O[C@@]12C[C@@H](C)[C@@]3(O)[C@@H](C=C(CO)C[C@]4(O)C(=O)C(C)=C[C@@H]34)[C@@H]1C2(C)C [Compound K101-C1364]
pKi (C1b domain of human PKCδ; Ki PKCδ): 7.52 to 9.00 | pKi (C1b domain of human PKCα; Ki PKCα): 6.40 to 6.70 | IC50 ([2]; Homo sapiens, A549, 96 h): 0.2 to 0.6 µM

CC1=C[C@H]2[C@@]3(O)[C@H](C)C[C@]4(OC(=O)[C@@H](N)C56CC(C(F)(F)F)(C5)C6)[C@H]([C@@H]3C=C(CO)C[C@]2(O)C1=O)C4(C)C [Compound K101-C1375]
IC50 [2, 3]: 0.06 to 0.1 µM
